# Measurements: PubChem BioAssay AID330 (DTP/NCI, 2004)
# Where “and” joins values, the source holds several entries; their conditions need not be identical. Equal entries are not always repeated. Inconclusive results and toxic doses are left out.
# Test system: P388 leukemia ip, CD2F1 mice, survival T/C
# Test: NCI In Vivo Anticancer Drug Screen. Data for tumor model P388 Leukemia (intraperitoneal) in CD2F1 (CDF1) mice
# Conditions: endpoint: median survival time, higher = longer survival
# Summary of the method: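 Mice carrying the transplanted tumor received test compound or vehicle. Survival was recorded in each group, and the value is the treated-group measurement divided by that of the vehicle-treated control group.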
# [1] = dose: 25.0 mg/kg/injection, schedule: Q01DX009 (ip), vehicle: saline with Tween-80
# [2] = dose: 50.0 mg/kg/injection, schedule: Q01DX009 (ip), vehicle: saline with Tween-80
# [3] = dose: 100.0 mg/kg/injection, schedule: Q01DX009 (ip), vehicle: saline with Tween-80
# [4] = dose: 200.0 mg/kg/injection, schedule: Q01DX009 (ip), vehicle: saline with Tween-80
# [5] = dose: 12.5 mg/kg/injection, schedule: Q01DX009 (ip), vehicle: saline with Tween-80
# [6] = dose: 50.0 mg/kg/injection, schedule: Q01DX009 (ip), vehicle: Klucel (hydroxypropylcellulose) (HPC)
# [7] = dose: 100.0 mg/kg/injection, schedule: Q01DX009 (ip), vehicle: Klucel (hydroxypropylcellulose) (HPC)
# [8] = dose: 200.0 mg/kg/injection, schedule: Q01DX009 (ip), vehicle: Klucel (hydroxypropylcellulose) (HPC)
# [9] = dose: 50.0 mg/kg/injection, schedule: Q01DX005 (ip), vehicle: saline with Tween-80
# [10] = dose: 100.0 mg/kg/injection, schedule: Q01DX005 (ip), vehicle: saline with Tween-80
# [11] = dose: 200.0 mg/kg/injection, schedule: Q01DX005 (ip), vehicle: saline with Tween-80
# [12] = dose: 60.0 mg/kg/injection, schedule: Q01DX005 (ip), vehicle: saline
# [13] = dose: 120.0 mg/kg/injection, schedule: Q01DX005 (ip), vehicle: saline
# [14] = dose: 240.0 mg/kg/injection, schedule: Q01DX005 (ip), vehicle: saline
# [15] = dose: 60.0 mg/kg/injection, schedule: Q01DX005 (ip), vehicle: saline with Tween-80
# [16] = dose: 120.0 mg/kg/injection, schedule: Q01DX005 (ip), vehicle: saline with Tween-80
# [17] = dose: 240.0 mg/kg/injection, schedule: Q01DX005 (ip), vehicle: saline with Tween-80
# [18] = dose: 12.5 mg/kg/injection, schedule: Q01DX009 (ip), vehicle: saline
# [19] = dose: 25.0 mg/kg/injection, schedule: Q01DX009 (ip), vehicle: saline
# [20] = dose: 50.0 mg/kg/injection, schedule: Q01DX009 (ip), vehicle: saline
# [21] = dose: 100.0 mg/kg/injection, schedule: Q01DX009 (ip), vehicle: saline
# [22] = dose: 200.0 mg/kg/injection, schedule: Q01DX009 (ip), vehicle: saline
smiles,measurement,setting,value
COC(=O)C=P(c1ccccc1)(c1ccccc1)c1ccccc1,T/C,[1],104 % of control
same,T/C,[2],100 % of control
same,T/C,[3],91 % of control
C=CCc1cc(/C(CC)=C(/CC)c2ccc(OCCN(CC)CC)c(CC=C)c2)ccc1OCCN(CC)CC,T/C,"dose: 50.0 mg/kg/injection, schedule: Q01DX005 (ip), vehicle: saline + Tween-80 + alcohol",99 % of control
same,T/C,"dose: 100.0 mg/kg/injection, schedule: Q01DX005 (ip), vehicle: saline + Tween-80 + alcohol",93 % of control
same,T/C,"dose: 200.0 mg/kg/injection, schedule: Q01DX005 (ip), vehicle: saline + Tween-80 + alcohol",104 % of control
COC1(CO)OCC(O)C(O)C1O (configuration not stated),T/C,"dose: 50.0 mg/kg/injection, schedule: Q01DX005 (ip), vehicle: saline",91 % of control
same,T/C,"dose: 100.0 mg/kg/injection, schedule: Q01DX005 (ip), vehicle: saline",93 % of control
same,T/C,"dose: 200.0 mg/kg/injection, schedule: Q01DX005 (ip), vehicle: saline",101 % of control
Cc1ccc([N+](=O)[O-])cc1NC(=O)Oc1cc(C)c(Br)c(C)c1,T/C,[2],106 % of control
same,T/C,[3],106 % of control
same,T/C,[4],112 % of control
CC(C)(C#N)C#N,T/C,"dose: 25.0 mg/kg/injection, schedule: Q04DX003 (ip), vehicle: saline with Tween-80",100 % of control
same,T/C,"dose: 50.0 mg/kg/injection, schedule: Q04DX003 (ip), vehicle: saline with Tween-80",100 % of control
O=C(C#Cc1ccccc1)c1ccccc1,T/C,[5],122 % of control and 124 % of control
same,T/C,[1],98 % of control
same,T/C,[2],121 % of control
CC(=O)c1c(O)c(C)c(C)c2c1OC(=O)C2C (configuration not stated),T/C,"dose: 3.12 mg/kg/injection, schedule: Q01DX009 (ip), vehicle: saline with Tween-80",109 % of control
same,T/C,"dose: 6.25 mg/kg/injection, schedule: Q01DX009 (ip), vehicle: saline with Tween-80",116 % of control
same,T/C,[5],108 % of control
COc1ccc(CCNCc2cccc(O)c2)cc1OC,T/C,[6],90 % of control
same,T/C,[7],92 % of control
same,T/C,[8],88 % of control
Nc1nc2ncc(CNc3ccc(C(=O)NC(CCC(=O)O)C(=O)O)cc3)cc2c(=O)[nH]1 (configuration not stated),T/C,[9],100 % of control
same,T/C,[10],117 % of control
same,T/C,[11],102 % of control
O=C1OCC[C@@H]1O,T/C,[12],101 % of control
same,T/C,[13],101 % of control
same,T/C,[14],97 % of control
COC1(OC)CC(CCl)OC1(OC)OC (configuration not stated),T/C,[12],103 % of control
same,T/C,[13],103 % of control
same,T/C,[14],101 % of control
CCOC1CC2CCCN2O1 (configuration not stated),T/C,"dose: 75.0 mg/kg/injection, schedule: Q01DX009 (ip), vehicle: saline",103 % of control
same,T/C,"dose: 150.0 mg/kg/injection, schedule: Q01DX009 (ip), vehicle: saline",100 % of control
same,T/C,"dose: 300.0 mg/kg/injection, schedule: Q01DX009 (ip), vehicle: saline",94 % of control
Clc1nc2nc3n(c2nc1Cl)CCC3(Br)Br,T/C,[15],97 % of control
same,T/C,[16],109 % of control
same,T/C,[17],103 % of control
CCN(CC)CCNC(=O)c1nn(C)c(=O)[nH]c1=O,T/C,"dose: 50.0 mg/kg/injection, schedule: Q01DX005 (ip), vehicle: Klucel (hydroxypropylcellulose) (HPC)",108 % of control
same,T/C,"dose: 100.0 mg/kg/injection, schedule: Q01DX005 (ip), vehicle: Klucel (hydroxypropylcellulose) (HPC)",119 % of control
same,T/C,"dose: 200.0 mg/kg/injection, schedule: Q01DX005 (ip), vehicle: Klucel (hydroxypropylcellulose) (HPC)",99 % of control
COc1ccc(Oc2cc3c(cc2OC)CCN(C)C3)cc1,T/C,[18],108 % of control
same,T/C,[19],104 % of control
same,T/C,[20],99 % of control and 107 % of control
C=CC(O)CC#N (configuration not stated),T/C,"dose: 18.75 mg/kg/injection, schedule: Q01DX009 (ip), vehicle: saline with Tween-80",102 % of control
same,T/C,"dose: 37.5 mg/kg/injection, schedule: Q01DX009 (ip), vehicle: saline with Tween-80",102 % of control
same,T/C,"dose: 75.0 mg/kg/injection, schedule: Q01DX009 (ip), vehicle: saline with Tween-80",108 % of control
CC(C)(C)N=C(CCN1CCOCC1)Nc1ccccc1Cl,T/C,[2],113 % of control
same,T/C,[3],106 % of control
same,T/C,[4],109 % of control
COc1cc(CC2c3cc(OC)c(OC)cc3CCN2C)c(NC(=O)c2ccc(C(=O)Nc3cc(OC)c(OC)cc3CC3c4cc(OC)c(OC)cc4CCN3C)cc2)cc1OC (configuration not stated),T/C,"dose: 12.5 mg/kg/injection, schedule: Q01DX009 (ip), vehicle: other",90 % of control
same,T/C,"dose: 25.0 mg/kg/injection, schedule: Q01DX009 (ip), vehicle: other",92 % of control
same,T/C,"dose: 50.0 mg/kg/injection, schedule: Q01DX009 (ip), vehicle: other",86 % of control
same,T/C,"dose: 200.0 mg/kg/injection, schedule: Q01DX009 (ip), vehicle: other",92 % of control
same,T/C,"dose: 400.0 mg/kg/injection, schedule: Q01DX009 (ip), vehicle: other",104 % of control
COC(=O)C12CC=CC1C(C)CC2 (configuration not stated),T/C,"dose: 75.0 mg/kg/injection, schedule: Q04DX002 (ip), vehicle: Klucel (hydroxypropylcellulose) (HPC)",100 % of control
same,T/C,"dose: 150.0 mg/kg/injection, schedule: Q04DX002 (ip), vehicle: Klucel (hydroxypropylcellulose) (HPC)",100 % of control
same,T/C,"dose: 300.0 mg/kg/injection, schedule: Q04DX002 (ip), vehicle: Klucel (hydroxypropylcellulose) (HPC)",100 % of control
Cc1ccc(S(=O)(=O)N/N=C/c2ccccc2)cc1,T/C,"dose: 25.0 mg/kg/injection, schedule: Q01DX009 (ip), vehicle: Klucel (hydroxypropylcellulose) (HPC)",95 % of control
same,T/C,[6],94 % of control
same,T/C,[7],95 % of control
same,T/C,[8],97 % of control
same,T/C,"dose: 400.0 mg/kg/injection, schedule: Q01DX009 (ip), vehicle: Klucel (hydroxypropylcellulose) (HPC)",109 % of control
C=CC1CC(NC(=O)c2ccccc2)C(=O)O1 (configuration not stated),T/C,[9],101 % of control
same,T/C,[10],104 % of control
same,T/C,[11],99 % of control
Cc1cc(O)c2c(c1)C(=O)C(c1c(C)cc3c(c1O)C(=O)C1OC1C3=O)=CC2=O (configuration not stated),T/C,"dose: 0.78 mg/kg/injection, schedule: Q01DX005 (ip), vehicle: Klucel (hydroxypropylcellulose) (HPC)",91 % of control
same,T/C,"dose: 1.56 mg/kg/injection, schedule: Q01DX005 (ip), vehicle: Klucel (hydroxypropylcellulose) (HPC)",106 % of control
same,T/C,"dose: 3.12 mg/kg/injection, schedule: Q01DX005 (ip), vehicle: Klucel (hydroxypropylcellulose) (HPC)",113 % of control
same,T/C,"dose: 6.25 mg/kg/injection, schedule: Q01DX005 (ip), vehicle: Klucel (hydroxypropylcellulose) (HPC)",100 % of control
COc1c(OC(C)=O)c(OC(C)=O)cc2c1-c1ccc(SC)c(=O)cc1C(NC(C)=O)CC2 (configuration not stated),T/C,"dose: 1.25 mg/kg/injection, schedule: Q01DX009 (ip), vehicle: Klucel (hydroxypropylcellulose) (HPC)",118 % of control
same,T/C,"dose: 5.0 mg/kg/injection, schedule: Q01DX009 (ip), vehicle: Klucel (hydroxypropylcellulose) (HPC)",150 % of control
same,T/C,"dose: 10.0 mg/kg/injection, schedule: Q01DX009 (ip), vehicle: Klucel (hydroxypropylcellulose) (HPC)",169 % of control and 185 % of control
same,T/C,"dose: 20.0 mg/kg/injection, schedule: Q01DX009 (ip), vehicle: Klucel (hydroxypropylcellulose) (HPC)",178 % of control
OC1CC2CC1CC2O (configuration not stated),T/C,[20],101 % of control
same,T/C,[21],98 % of control
same,T/C,[22],104 % of control
S=P(OC1CC2CCC1C2)(c1ccccc1)c1ccccc1 (configuration not stated),T/C,[2],100 % of control
same,T/C,[3],103 % of control
same,T/C,[4],106 % of control
O=C1NC(=O)C2=C1CCCC2O (configuration not stated),T/C,"dose: 6.25 mg/kg/injection, schedule: Q01DX009 (ip), vehicle: saline",102 % of control
same,T/C,[18],101 % of control
same,T/C,[19],110 % of control
same,T/C,[20],102 % of control
same,T/C,[21],107 % of control
same,T/C,[22],118 % of control
O=C1NC(O)c2cc([N+](=O)[O-])ccc2O1 (configuration not stated),T/C,[9],100 % of control and 107 % of control
same,T/C,[10],102 % of control and 115 % of control
same,T/C,[11],100 % of control and 120 % of control
CC1=C(C(=O)CC(=O)Nc2ccc(Cl)c(Cl)c2)Sc2ccccc2N1,T/C,[15],96 % of control
same,T/C,[16],92 % of control
same,T/C,[17],99 % of control
